Laboratory results taken from ChEMBL document CHEMBL1201862, “PubChem BioAssay data set” (2004).
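These data come from cells grown in 96-well plates and exposed to compound for 48 hours at five concentrations. Here, GI50 denotes the concentration required for 50% inhibition of growth.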 The source made the active and inactive calls. Rule as the data show it: active = GI50 up to about 1.1 µM and inactive = higher.

Columns and labels:
Assay in all cases: NCI anticancer screen, dose series, 48 h
[1] = tested on: RPMI-8226
[2] = tested on: HT-29
[3] = tested on: NCI-H522
[4] = tested on: HCT-116
[5] = tested on: SF-268
[6] = tested on: COLO 205
[7] = tested on: MCF7
[8] = tested on: TK-10
[9] = tested on: HCC 2998
[10] = tested on: UACC-62
[11] = tested on: U-251
[12] = tested on: A549
[13] = tested on: OVCAR-4
[14] = tested on: SK-OV-3
[15] = tested on: ACHN
[16] = tested on: K562
[17] = tested on: NCI/ADR-RES
[18] = tested on: BT-549
[19] = tested on: KM12
[20] = tested on: Malme-3M

Measured: GI50

CN1C(=O)[C@@H]2N(CSC2(C)C)C1=S
inactive: [1] > 100 µM | [2] > 100 µM | [3] 29.1 µM | [4] > 100 µM | [5] > 100 µM | [6] > 100 µM | [7] > 100 µM | [8] > 100 µM | [9] > 100 µM | [10] > 100 µM | [11] > 100 µM | [12] > 100 µM | [13] > 100 µM | [14] > 100 µM | [15] > 100 µM | [16] 69.7 µM | [17] > 100 µM | [18] > 100 µM | [19] > 100 µM

C/C(=N\N=C(\N)OB(F)F)c1ccccn1
inactive: [2] 47.3 µM | [3] > 100 µM | [4] 58.5 µM | [5] > 100 µM | [6] > 100 µM | [7] 79.4 µM | [8] 59.7 µM | [9] > 100 µM | [10] 82.2 µM | [11] 35.7 µM | [12] > 100 µM | [13] 35 µM | [20] > 100 µM | [14] > 10 µM | [15] 81.1 µM | [16] 46.7 µM | [17] > 100 µM | [18] > 100 µM | [19] > 100 µM

O=C(C1OC1c1ccc(F)cc1)C12CC3CC(CC(C3)C1)C2 (stereo not given)
inactive: [2] 20.2 µM | [3] 17.4 µM | [4] 5.98 µM | [5] 22.4 µM | [6] 16 µM | [7] 22.2 µM | [8] 35.2 µM | [9] 20.1 µM | [10] 15.2 µM | [11] 11.4 µM | [12] 21 µM | [13] 13.8 µM | [20] 21.3 µM | [14] 31.1 µM | [15] 30 µM | [16] 17.6 µM | [17] 21.2 µM | [18] 15.6 µM | [19] 15.7 µM

Oc1ccc(Cc2nccc3cc(O)c(O)cc23)cc1O
inactive: [1] 27.4 µM | [2] 53.5 µM | [3] 30.4 µM | [4] 17.7 µM | [5] 51.9 µM | [6] 21.6 µM | [7] 21.5 µM | [8] 32.7 µM | [10] 33.4 µM | [11] 37.9 µM | [12] 54.3 µM | [13] 41.6 µM | [20] > 100 µM | [14] 66.8 µM | [15] 88.1 µM | [16] 26.8 µM | [17] > 100 µM | [18] 54.3 µM | [19] 67.3 µM

CCOC(=O)c1[nH]cc(C)c1-c1cccn1-c1ccc(Cl)cc1[N+](=O)[O-]
inactive: [2] 16.2 µM | [3] 14 µM | [4] 16.7 µM | [5] 21.1 µM | [6] 17.8 µM | [7] 30.7 µM | [8] 14.4 µM | [9] 19.4 µM | [10] 18.2 µM | [11] 15.1 µM | [12] 23 µM | [13] 32.5 µM | [15] 23.9 µM | [16] 22.6 µM | [17] 17.5 µM | [18] 27.2 µM | [19] 20.1 µM

COc1ccccc1-c1nc(-c2ccccc2O)n[nH]1
inactive: [1] > 100 µM | [2] > 100 µM | [4] > 100 µM | [5] > 100 µM | [6] > 100 µM | [7] > 100 µM | [8] > 100 µM | [9] > 100 µM | [10] > 100 µM | [11] > 100 µM | [12] > 100 µM | [13] > 100 µM | [14] > 100 µM | [15] > 100 µM | [16] > 100 µM | [17] > 100 µM | [18] > 100 µM | [19] > 100 µM

COc1cccc(Nc2nc(C)c([N+](=O)[O-])c(Nc3cccc(OC)c3)n2)c1
inactive: [1] 5.06 µM | [2] 12.6 µM | [3] 8.18 µM | [4] 26.6 µM | [5] 40.4 µM | [6] 13.9 µM | [7] 2.24 µM | [8] 16.8 µM | [10] 5.75 µM | [11] 49.1 µM | [12] 12.1 µM | [20] 53.1 µM | [14] > 100 µM | [15] 19.4 µM | [16] 8.65 µM | [17] 2.92 µM | [18] 1.85 µM

O=S(=O)(c1ccccc1)c1ccc(/N=N/O)nc1
inactive: [2] > 100 µM | [3] > 100 µM | [4] > 100 µM | [5] > 100 µM | [6] > 100 µM | [7] 76 µM | [8] > 100 µM | [9] > 100 µM | [10] > 100 µM | [11] > 100 µM | [12] > 100 µM | [13] > 100 µM | [20] > 100 µM | [14] > 100 µM | [15] > 100 µM | [16] > 100 µM | [17] > 100 µM | [18] > 100 µM | [19] > 100 µM

COc1cc(COC(=O)N(C)[C@@H](Cc2ccccc2)C(=O)O)c([N+](=O)[O-])cc1OC
inactive: [1] > 100 µM | [2] > 100 µM | [4] > 100 µM | [5] > 100 µM | [7] > 100 µM | [9] > 100 µM | [10] > 100 µM | [11] > 100 µM | [12] > 100 µM | [20] > 100 µM | [14] > 100 µM | [15] > 100 µM | [16] > 100 µM | [17] > 100 µM | [18] > 100 µM | [19] > 100 µM

CC(=O)Oc1c2c(c3n(c1=O)CCCC3)C(=O)N(c1ccccc1)C2=O
inactive: [2] 94.2 µM | [3] 61.5 µM | [4] > 100 µM | [5] > 100 µM | [6] > 100 µM | [7] > 100 µM | [8] 94.6 µM | [9] 30.8 µM | [10] 63.7 µM | [11] > 100 µM | [12] > 100 µM | [13] 54.3 µM | [20] > 100 µM | [14] > 100 µM | [15] 51.4 µM | [16] > 100 µM | [17] 65.3 µM | [18] 38.2 µM | [19] > 100 µM

CCOC(=O)c1nc2ccc(C(F)(F)F)cc2nc1NCc1cc(OC)c(OC)c(OC)c1
inactive: [1] 17.7 µM | [2] 59.6 µM | [3] 37.1 µM | [4] 30 µM | [5] 61.8 µM | [6] 29.3 µM | [7] 66.5 µM | [8] > 100 µM | [9] 57.9 µM | [10] 53.5 µM | [12] 73.3 µM | [15] 50.6 µM | [17] 94.8 µM | [18] > 100 µM | [19] 32.9 µM

COc1cc(OC)c(OC)cc1/C=C/c1ccccn1
inactive: [2] > 10 µM | [3] > 10 µM | [4] > 10 µM | [5] > 10 µM | [6] > 10 µM | [7] > 10 µM | [8] > 10 µM | [9] > 10 µM | [10] > 10 µM | [11] > 10 µM | [12] > 10 µM | [13] > 10 µM | [20] > 10 µM | [14] > 10 µM | [15] > 10 µM | [16] > 10 µM | [17] > 10 µM | [18] > 10 µM | [19] > 10 µM

CCC(CCCN)Nc1cc(OC)cc2c(C)ccnc12 (stereo not given)
inactive: [2] 14.3 µM | [4] 15.9 µM | [5] 15.3 µM | [6] 18.2 µM | [7] 15 µM | [8] 17.7 µM | [9] 18.8 µM | [10] > 10 µM | [12] 15.6 µM | [13] 17.8 µM | [20] 19.6 µM | [14] 13.6 µM | [15] 18.3 µM | [16] 15 µM | [17] 25.1 µM | [18] 14.9 µM | [19] 14.9 µM

Cc1c(C(=O)O)c2cc3ccccc3cc2c(=O)n1C
inactive: [2] > 10 µM | [3] > 10 µM | [5] > 10 µM | [7] > 10 µM | [8] > 10 µM | [9] > 10 µM | [10] > 10 µM | [11] > 10 µM | [12] > 10 µM | [13] > 10 µM | [20] > 10 µM | [14] > 10 µM | [15] > 10 µM | [17] > 10 µM | [18] > 10 µM | [19] > 10 µM

CN1CN(c2ccccc2)C2(CCN(CCCN(C)c3ccc(F)cc3)CC2)C1=O
inactive: [1] 10.7 µM | [2] 10.1 µM | [3] 13.9 µM | [4] 12.8 µM | [5] 20.3 µM | [6] 11.6 µM | [7] 15.2 µM | [8] 18.9 µM | [10] 18.7 µM | [11] 18.6 µM | [12] 23.2 µM | [20] 19.5 µM | [14] 17.1 µM | [15] 22.2 µM | [16] 1.58 µM | [17] 20.6 µM | [18] 15.2 µM | [19] 16 µM

CC1CCOc2ccc(cc2)/C=N\c2ccc(cc2)-c2ccc(cc2)/N=C\c2ccc(cc2)OCC1
inactive: [1] > 100 µM | [2] > 100 µM | [3] > 100 µM | [4] > 100 µM | [5] > 100 µM | [6] > 100 µM | [7] > 100 µM | [8] > 100 µM | [9] > 100 µM | [11] > 100 µM | [12] > 100 µM | [13] > 100 µM | [14] > 100 µM | [15] > 100 µM | [16] > 100 µM | [17] > 100 µM | [18] > 100 µM | [19] > 100 µM
